# Entries after “also recorded” stand apart in the source; their conditions may differ.
# Tests used:
# [1] = system: HeLa cells; experiment: Apo Tox-Glo viability assay, HeLa cells; type: cell-based, human
# Experimental: (§1) HeLa, U2OS, and MRI90 cells were cultured in the presence of ADAR1 inhibitors, 5 μM or 20 μM, for 3 days. Their viability was examined using the Apo Tox-Glo assay system (Promega), which measures plasma membrane penetration of glycyl-phenyl-alanyl-aminofluorocoumarin peptide. Control, 0.3% DMSO. […] Data are mean±S.D. (n=3, biological replicates).
# (§2) FIGS. 29A-29D Characterization of Compound #13 effects in cancer cells. […] Viability was examined using the Apo Tox-Glo assay system (Promega). Control, 0.3% DMSO. (FIG. 29B) Western blotting analysis of HeLa cells treated with Compound #13 (10 μM). […] (FIG. 29D) Activation of the IFN signaling pathway. HSC-4 squamous carcinoma cells were treated with Compound #13 at 10 μM (12 hrs). RNA samples were analyzed by qRT-PCR to monitor expression levels of ISGs.
# [2] = target: T1, ADAR1p110-E912A (Homo sapiens, UniProt P55265, E912A); experiment: surface plasmon resonance (Biacore T200), ADAR1p110-E912A; type: binding; settings: SPR
# T1 sequence (P55265 1-931 isoform P55265-5 E617A): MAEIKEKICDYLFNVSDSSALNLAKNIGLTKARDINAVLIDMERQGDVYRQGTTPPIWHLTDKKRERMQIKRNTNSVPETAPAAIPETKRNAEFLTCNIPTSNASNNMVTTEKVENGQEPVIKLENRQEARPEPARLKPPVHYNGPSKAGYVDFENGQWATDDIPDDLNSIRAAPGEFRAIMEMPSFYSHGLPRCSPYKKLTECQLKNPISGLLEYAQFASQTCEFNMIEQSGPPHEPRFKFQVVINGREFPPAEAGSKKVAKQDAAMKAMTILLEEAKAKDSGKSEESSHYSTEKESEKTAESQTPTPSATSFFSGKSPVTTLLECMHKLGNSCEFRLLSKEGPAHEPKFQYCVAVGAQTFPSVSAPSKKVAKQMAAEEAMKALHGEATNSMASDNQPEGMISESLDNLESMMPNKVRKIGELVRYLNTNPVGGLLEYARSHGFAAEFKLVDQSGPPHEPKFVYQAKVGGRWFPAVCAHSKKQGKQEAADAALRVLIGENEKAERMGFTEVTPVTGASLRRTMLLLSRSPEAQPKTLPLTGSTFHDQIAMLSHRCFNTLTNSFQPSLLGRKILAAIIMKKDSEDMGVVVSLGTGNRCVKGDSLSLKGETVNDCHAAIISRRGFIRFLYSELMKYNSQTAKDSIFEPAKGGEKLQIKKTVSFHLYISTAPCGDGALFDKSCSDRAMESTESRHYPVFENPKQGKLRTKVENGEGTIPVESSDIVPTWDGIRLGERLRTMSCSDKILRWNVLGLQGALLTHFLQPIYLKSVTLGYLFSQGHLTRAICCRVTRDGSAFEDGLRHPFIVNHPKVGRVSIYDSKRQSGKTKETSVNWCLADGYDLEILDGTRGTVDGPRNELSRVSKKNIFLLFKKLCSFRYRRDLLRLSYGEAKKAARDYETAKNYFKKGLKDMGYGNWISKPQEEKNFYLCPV
# Excerpt: We synthesized 2 additional analogs of Compound #13 for preliminary structure activity relationships (SAR), namely, #13-Analog 1 and #13-Analog 2 (Table 3). Compound #13-Analog 1 lacks the 4-cyano moiety and #13-Analog 2 shifts the cyano to the 2-position of the phenyl ring. […] We hypothesized that the cyano-phenyl moiety will coordinate with the zinc atom in the active site when bound to ADAR1. We evaluated the ability of Compound #13 to bind to ADAR1 using surface plasmon resonance (SPR) on the Biacore T200. […] We modeled Compound #13 into the ADAR2 active site (56).
# [3] = system: U2OS cells; experiment: Apo Tox-Glo viability assay, U2OS cells; type: cell-based, human; settings: 5 μM, 3 days
# Experimental: as §1, §2
smiles,measurement,setting,value
"N#Cc1ccc(NC(=O)c2sc3ccccc3c2Cl)cc1 [Compound #13, 3-chloro-N-(4-cyanophenyl)-1-benzothiophene-2-carboxamide]",viability of HeLa (non-ALT) cells,"[1]; 5 μM, 3 days",significantly decreased viability; also recorded: significantly reduced viability
same,viability of HeLa non-ALT cancer cells,"[1]; 10 μM, FIG. 29A",killed selectively; also recorded: selectively reduced viability
same,binding to mutant ADAR1p110-E912A,[2],did not bind; also recorded: not to mutant E912A
same,viability of U2OS (ALT) cells,[3],very little effects

# Reference: US20250066864A1, “METHODS FOR IDENTIFYING ADAR1 INHIBITORS, AND COMPOSITIONS AND METHODS OF USE IN TREATING CANCER” (The Wistar Institute of Anatomy and Biology, priority 2021, published 2025)
